From PubChem BioAssay (NCI) come the findings set out here.

Among the test systems are SNB-75 CNS; 786-0 renal; NCI-H23 lung; SF-268 CNS; CAKI-1 renal; T-47D breast; HT29 colon; BT-549 breast; A549 NSCLC; HCT-15 colon; HS 578T breast; TK-10 renal; NCI-H522 lung; SW-620 colon; HOP-92 NSCLC; SK-MEL-2 melanoma; IGROV1 ovarian; HCC-2998 colon; SK-MEL-5 melanoma; DU-145 prostate.
Assay in all cases: inhibition of tumour cell growth, NCI panel, 48 h

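Dose response: 5 concentrations. Exposure: 48 h. Format: 96-well plates. Endpoint: linear interpolation; highest concentration if not reached. TGI is the concentration that stops growth completely.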

`CC(=O)OC(CN1CCN(c2ccccn2)CC1)Cn1sc2nc(C)cc(C)c2c1=O` (stereo not given): the TGI with SNB-75 CNS was found to be 32.8 µM; with 786-0 renal, 28.1 µM; in the experiment with NCI-H23 lung, 43 µM; in the experiment on SF-268 CNS, 32.9 µM; in the experiment with CAKI-1 renal, 37.2 µM; in the experiment with T-47D breast, 76.8 µM. Further, the TGI with HT29 colon turned out to be 34.4 µM; with BT-549 breast, 33.2 µM; in the experiment on A549 NSCLC, 45.8 µM; with HCT-15 colon, 42.2 µM; in the experiment on HS 578T breast, 44.8 µM; with TK-10 renal it was 31.3 µM. In addition, the TGI in the experiment with NCI-H522 lung was 22.7 µM; in the experiment on SW-620 colon, more than 100 µM; in the experiment with HOP-92 NSCLC it was more than 100 µM; in the experiment with SK-MEL-2 melanoma, 32.2 µM; in the experiment with IGROV1 ovarian it was 33.4 µM; with HCC-2998 colon, 34.4 µM. The TGI in the experiment with SK-MEL-5 melanoma is 26.1 µM; in the experiment with DU-145 prostate, 33.9 µM.

Regarding `Cc1sc2[nH]c(=O)oc(=O)c2c1C`, the TGI in the experiment on SNB-75 CNS, in the experiment on 786-0 renal, in the experiment on NCI-H23 lung, with SF-268 CNS, with CAKI-1 renal and in the experiment with T-47D breast was more than 100 µM each time. The TGI in the experiment with HT29 colon was more than 100 µM; in the experiment with BT-549 breast it was more than 86.6 µM; in the experiment with A549 NSCLC it was more than 100 µM; with HCT-15 colon, more than 100 µM; in the experiment with HS 578T breast it was more than 71 µM; in the experiment with TK-10 renal, more than 100 µM. Further, the TGI is more than 83.1 µM in the experiment with NCI-H522 lung; more than 100 µM with SW-620 colon; more than 100 µM with HOP-92 NSCLC; more than 100 µM in the experiment on SK-MEL-2 melanoma; more than 100 µM in the experiment with IGROV1 ovarian; more than 100 µM with HCC-2998 colon. For the same compound, the TGI with SK-MEL-5 melanoma and in the experiment with DU-145 prostate was more than 100 µM in each case.

In the case of `C=CCc1[nH]c2c(OCc3ccccc3)cc(N(CC=C)C(C)=O)cc2c1C`, the TGI in the experiment on SNB-75 CNS came to 23.4 µM; in the experiment on 786-0 renal, 28 µM; in the experiment on NCI-H23 lung, 26.8 µM; in the experiment on SF-268 CNS, 24.6 µM; in the experiment with CAKI-1 renal, 29.9 µM; in the experiment on T-47D breast, 26.4 µM. The TGI turned out to be 20.5 µM in the experiment on HT29 colon; 29.3 µM in the experiment on BT-549 breast; 26.2 µM in the experiment on A549 NSCLC; 25.6 µM with HCT-15 colon; 30.8 µM in the experiment with HS 578T breast; 30 µM in the experiment on TK-10 renal. The TGI in the experiment on NCI-H522 lung turned out to be 26.5 µM; with SW-620 colon, 32.2 µM; in the experiment on HOP-92 NSCLC it was 25.7 µM; with SK-MEL-2 melanoma it was 26.1 µM; in the experiment with IGROV1 ovarian, 28 µM; with HCC-2998 colon, 28.4 µM. Besides, the TGI in the experiment with SK-MEL-5 melanoma is 24 µM; in the experiment with DU-145 prostate, 27.8 µM.

`COc1cc2nc(Nc3cccc(Br)c3)nc(Nc3cccc(Br)c3)c2cc1OC`: the TGI in the experiment on SNB-75 CNS is 31.8 µM; in the experiment on 786-0 renal, 31 µM; in the experiment with NCI-H23 lung, 33.3 µM; with SF-268 CNS, 29.9 µM; in the experiment with CAKI-1 renal it was 29.8 µM; in the experiment on T-47D breast, 43.7 µM. Also, the TGI in the experiment on HT29 colon worked out at 34.8 µM; in the experiment with BT-549 breast, 30.7 µM; in the experiment with A549 NSCLC, 32.6 µM; in the experiment on HCT-15 colon it was 33.3 µM; in the experiment on HS 578T breast it was 38.5 µM; in the experiment with TK-10 renal, 39.3 µM. The TGI with NCI-H522 lung turned out to be 32.4 µM; with SW-620 colon, 45.8 µM; in the experiment on HOP-92 NSCLC, 29.5 µM; with SK-MEL-2 melanoma, 36.1 µM; with IGROV1 ovarian, 30.1 µM; in the experiment with HCC-2998 colon it was 44.6 µM. Moreover, the TGI with SK-MEL-5 melanoma was 30.7 µM; in the experiment on DU-145 prostate, 34.1 µM.

Take `COc1ccc(OC)c(CSc2ccc(OC)c(OC)c2)c1`: the TGI was more than 100 µM with SNB-75 CNS; more than 100 µM with 786-0 renal; more than 100 µM in the experiment on NCI-H23 lung; more than 100 µM in the experiment on SF-268 CNS; more than 100 µM in the experiment with CAKI-1 renal; more than 30.5 µM in the experiment on T-47D breast. For the same compound, the TGI with HT29 colon, in the experiment with BT-549 breast, in the experiment with A549 NSCLC, with HCT-15 colon, with HS 578T breast and in the experiment on TK-10 renal was more than 100 µM throughout. Further, the TGI was more than 100 µM with NCI-H522 lung; more than 100 µM in the experiment with SW-620 colon; 98.3 µM in the experiment on HOP-92 NSCLC; more than 100 µM in the experiment on SK-MEL-2 melanoma; more than 100 µM with IGROV1 ovarian; more than 100 µM in the experiment with HCC-2998 colon. The TGI in the experiment on SK-MEL-5 melanoma and with DU-145 prostate was more than 100 µM throughout.

In the case of `COC(=O)c1c(C)cccc1C1CN=NC12Cc1ccccc1C2=O` (stereo not given), the TGI in the experiment on SNB-75 CNS, in the experiment on 786-0 renal, with NCI-H23 lung, in the experiment with SF-268 CNS, in the experiment with CAKI-1 renal and in the experiment on T-47D breast was more than 100 µM each time. For the same compound, the TGI in the experiment on HT29 colon, in the experiment on BT-549 breast, with A549 NSCLC, with HCT-15 colon, in the experiment on HS 578T breast and in the experiment with TK-10 renal was more than 100 µM in each case. Also, the TGI in the experiment with NCI-H522 lung, in the experiment on SW-620 colon, in the experiment on HOP-92 NSCLC, in the experiment on SK-MEL-2 melanoma, in the experiment on IGROV1 ovarian and with HCC-2998 colon was more than 100 µM throughout. Moreover, the TGI with SK-MEL-5 melanoma and in the experiment on DU-145 prostate was more than 100 µM in each case.

Turning to `CC1=NN(c2nc(N)nc(CBr)n2)C(C)(C)C1`, the TGI with SNB-75 CNS was determined as 21.7 µM; in the experiment with 786-0 renal, 1.78 µM; in the experiment on NCI-H23 lung, 29.9 µM; in the experiment on SF-268 CNS, 23 µM; in the experiment with CAKI-1 renal, 3.06 µM; with T-47D breast, 18 µM. For the same compound, the TGI in the experiment with HT29 colon came to 18.6 µM; in the experiment on BT-549 breast, 28.9 µM; in the experiment with A549 NSCLC, 37.1 µM; with HCT-15 colon it was 16.6 µM; in the experiment on HS 578T breast, 38.2 µM; in the experiment with TK-10 renal it was 14.9 µM. For the same compound, the TGI with NCI-H522 lung was 1.01 µM; in the experiment with SW-620 colon it was 12.7 µM; in the experiment on HOP-92 NSCLC, 1.08 µM; in the experiment on SK-MEL-2 melanoma it was 26.2 µM; with IGROV1 ovarian, 3.29 µM; in the experiment on HCC-2998 colon it was 30.6 µM. Moreover, the TGI was determined as 26.2 µM with SK-MEL-5 melanoma and 12.1 µM in the experiment with DU-145 prostate.
